Measurements: US9029337B2, “Modulation of factor 7 expression” (Isis Pharmaceuticals, Inc., priority 2007, dated 2015)
Strand notation (5' to 3'): a small letter for the sugar, then the base; units joined by * are phosphorothioate-linked, units joined directly phosphodiester-linked; [ ] holds rarer units or linkages, { } end groups; capitals alone tell only the bases. e = 2'-O-(2-methoxyethyl) (MOE); [5mC] = 5-methylcytosine; d = 2'-deoxy (DNA)

Tested on: human Factor 7 mRNA
Test: Antisense inhibition of human Factor 7 mRNA in HepB3 cells, 50 nM antisense oligonucleotide, lipofectin
Type: cell-based
Conditions: Table 6, 50 nM, lipofectin, approximately 24 hours
Method in brief: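 Seeding density was 4,000 cells per well. Following roughly 24 hours of oligonucleotide treatment, RNA was extracted and Factor 7 message quantified using the RTS 2927 primer probe set. Levels were corrected for RIBOGREEN® total RNA and expressed against untreated controls.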

Substance	% Inhibition [%]
422117 (antisense eG*eG*eA*eA*eG*dA*dA*dG*dG*dG*dA*d[5mC]*dG*dG*dA*eA*eG*eG*eT*eG) [compound 422117]	1
422118 (antisense e[5mC]*eG*eG*eA*eA*dG*dA*dA*dG*dG*dG*dA*d[5mC]*dG*dG*eA*eA*eG*eG*eT) [compound 422118]	15
422119 (antisense eG*e[5mC]*eG*eG*eA*dA*dG*dA*dA*dG*dG*dG*dA*d[5mC]*dG*eG*eA*eA*eG*eG) [compound 422119]	39
422120 (antisense e[5mC]*eG*e[5mC]*eG*eG*dA*dA*dG*dA*dA*dG*dG*dG*dA*d[5mC]*eG*eG*eA*eA*eG) [compound 422120]	40
422121 (antisense eG*e[5mC]*eG*e[5mC]*eG*dG*dA*dA*dG*dA*dA*dG*dG*dG*dA*e[5mC]*eG*eG*eA*eA) [compound 422121]	43

Same assay, conditions: Table 13 (microwalk), 50 nM, lipofectin, approximately 24 hours

Substance	% Inhibition [%]
422085 (antisense eG*e[5mC]*eA*eT*eG*dG*dT*dG*dA*dT*dG*d[5mC]*dT*dT*d[5mC]*eT*eG*eA*eA*eT) [compound 422085]	70

Same assay, conditions: lipofectin, 50 nM antisense oligonucleotide, approximately 24 hours, Factor 7 mRNA by real-time RT-PCR (RTS 2927), relative to untreated control

Substance	% Inhibition [%]
416561 (antisense eG*eG*eT*eG*eT*dG*dT*dT*d[5mC]*d[5mC]*d[5mC]*dA*dT*dA*dA*eA*eA*e[5mC]*eT*eT) [compound 416561]	16
416562 (antisense eA*eA*eA*eG*e[5mC]*dA*dG*dA*dG*d[5mC]*d[5mC]*dA*dG*d[5mC]*dT*e[5mC]*eT*eG*eA*e[5mC]) [compound 416562]	12
416563 (antisense eG*e[5mC]*e[5mC]*eT*eG*d[5mC]*dA*dT*dT*dT*d[5mC]*d[5mC]*d[5mC]*dA*dT*eT*eG*eG*e[5mC]*eA) [compound 416563]	0
416564 (antisense eG*e[5mC]*e[5mC]*eA*e[5mC]*dT*d[5mC]*dA*d[5mC]*dA*dG*dA*dA*dA*dG*e[5mC]*eT*eG*eG*eA) [compound 416564]	0
416565 (antisense e[5mC]*eA*eG*eG*eA*dT*dG*d[5mC]*dT*d[5mC]*dA*dT*dG*dG*d[5mC]*eA*eG*eA*e[5mC]*eA) [compound 416565]	0
416566 (antisense eG*eT*eT*eT*eG*dT*dA*dT*dG*dG*dA*dG*dA*dG*dA*e[5mC]*e[5mC]*eA*eA*eT) [compound 416566]	0
416567 (antisense eT*eG*eG*eT*eG*dG*d[5mC]*dA*d[5mC]*d[5mC]*dA*dG*dA*dT*dG*eT*e[5mC]*eT*eG*eA) [compound 416567]	2
416568 (antisense e[5mC]*eA*eT*eT*eG*dT*dG*d[5mC]*d[5mC]*dT*dG*dG*d[5mC]*dA*d[5mC]*eA*e[5mC]*eA*eG*eG) [compound 416568]	14
416569 (antisense eG*e[5mC]*e[5mC]*eT*eG*dG*dT*dG*dT*dG*d[5mC]*dA*d[5mC]*dA*d[5mC]*eA*eT*eT*eG*eT) [compound 416569]	12

Same assay, conditions: oligonucleotides targeted to nucleobases 11830 to 11869 of SEQ ID NO: 1 (Table 9)

Substance	% Inhibition (human Factor 7 mRNA levels) [%]
422088 (antisense eT*e[5mC]*eA*eG*eG*dG*d[5mC]*dT*dG*dG*dT*dT*dT*dT*dG*eG*eA*eG*eG*eA) [compound 422088]	8
422089 (antisense eG*eT*e[5mC]*eA*eG*dG*dG*d[5mC]*dT*dG*dG*dT*dT*dT*dT*eG*eG*eA*eG*eG) [compound 422089]	22
422090 (antisense eG*eG*eT*e[5mC]*eA*dG*dG*dG*d[5mC]*dT*dG*dG*dT*dT*dT*eT*eG*eG*eA*eG) [compound 422090]	42
422091 (antisense eT*eG*eG*eT*e[5mC]*dA*dG*dG*dG*d[5mC]*dT*dG*dG*dT*dT*eT*eT*eG*eG*eA) [compound 422091]	42
422092 (antisense eA*eT*eG*eG*eT*d[5mC]*dA*dG*dG*dG*d[5mC]*dT*dG*dG*dT*eT*eT*eT*eG*eG) [compound 422092]	36
422093 (antisense eA*eA*eT*eG*eG*dT*d[5mC]*dA*dG*dG*dG*d[5mC]*dT*dG*dG*eT*eT*eT*eT*eG) [compound 422093]	42
422094 (antisense e[5mC]*eA*eA*eT*eG*dG*dT*d[5mC]*dA*dG*dG*dG*d[5mC]*dT*dG*eG*eT*eT*eT*eT) [compound 422094]	48
422095 (antisense eA*e[5mC]*eA*eA*eT*dG*dG*dT*d[5mC]*dA*dG*dG*dG*d[5mC]*dT*eG*eG*eT*eT*eT) [compound 422095]	60
422097 (antisense eG*eA*eG*eA*e[5mC]*dA*dA*dT*dG*dG*dT*d[5mC]*dA*dG*dG*eG*e[5mC]*eT*eG*eG) [compound 422097]	59
422098 (antisense eG*eG*eA*eG*eA*d[5mC]*dA*dA*dT*dG*dG*dT*d[5mC]*dA*dG*eG*eG*e[5mC]*eT*eG) [compound 422098]	53
422099 (antisense eA*eG*eG*eA*eG*dA*d[5mC]*dA*dA*dT*dG*dG*dT*d[5mC]*dA*eG*eG*eG*e[5mC]*eT) [compound 422099]	48
422100 (antisense eG*eA*eG*eG*eA*dG*dA*d[5mC]*dA*dA*dT*dG*dG*dT*d[5mC]*eA*eG*eG*eG*e[5mC]) [compound 422100]	59
422101 (antisense eT*eG*eA*eG*eG*dA*dG*dA*d[5mC]*dA*dA*dT*dG*dG*dT*e[5mC]*eA*eG*eG*eG) [compound 422101]	42
422102 (antisense e[5mC]*eT*eG*eA*eG*dG*dA*dG*dA*d[5mC]*dA*dA*dT*dG*dG*eT*e[5mC]*eA*eG*eG) [compound 422102]	62
422103 (antisense eG*e[5mC]*eT*eG*eA*dG*dG*dA*dG*dA*d[5mC]*dA*dA*dT*dG*eG*eT*e[5mC]*eA*eG) [compound 422103]	38
422104 (antisense eG*eG*e[5mC]*eT*eG*dA*dG*dG*dA*dG*dA*d[5mC]*dA*dA*dT*eG*eG*eT*e[5mC]*eA) [compound 422104]	59
422105 (antisense eT*eG*eG*e[5mC]*eT*dG*dA*dG*dG*dA*dG*dA*d[5mC]*dA*dA*eT*eG*eG*eT*e[5mC]) [compound 422105]	60
422106 (antisense e[5mC]*eT*eG*eG*e[5mC]*dT*dG*dA*dG*dG*dA*dG*dA*d[5mC]*dA*eA*eT*eG*eG*eT) [compound 422106]	32
422107 (antisense eG*e[5mC]*eT*eG*eG*d[5mC]*dT*dG*dA*dG*dG*dA*dG*dA*d[5mC]*eA*eA*eT*eG*eG) [compound 422107]	36

Same assay, conditions: oligonucleotides targeted to nucleobases 13760 to 13789 of SEQ ID NO: 1 (Table 10)

Substance	% Inhibition (human Factor 7 mRNA levels) [%]
422108 (antisense e[5mC]*e[5mC]*eG*e[5mC]*e[5mC]*dG*dG*d[5mC]*dT*d[5mC]*dT*dG*d[5mC]*dT*d[5mC]*eA*eT*e[5mC]*e[5mC]*e[5mC]) [compound 422108]	69
422109 (antisense e[5mC]*e[5mC]*e[5mC]*eG*e[5mC]*d[5mC]*dG*dG*d[5mC]*dT*d[5mC]*dT*dG*d[5mC]*dT*e[5mC]*eA*eT*e[5mC]*e[5mC]) [compound 422109]	68
422110 (antisense eA*e[5mC]*e[5mC]*e[5mC]*eG*d[5mC]*d[5mC]*dG*dG*d[5mC]*dT*d[5mC]*dT*dG*d[5mC]*eT*e[5mC]*eA*eT*e[5mC]) [compound 422110]	53
422111 (antisense e[5mC]*eA*e[5mC]*e[5mC]*e[5mC]*dG*d[5mC]*d[5mC]*dG*dG*d[5mC]*dT*d[5mC]*dT*dG*e[5mC]*eT*e[5mC]*eA*eT) [compound 422111]	37
422112 (antisense e[5mC]*e[5mC]*eA*e[5mC]*e[5mC]*d[5mC]*dG*d[5mC]*d[5mC]*dG*dG*d[5mC]*dT*d[5mC]*dT*eG*e[5mC]*eT*e[5mC]*eA) [compound 422112]	61
422113 (antisense eG*e[5mC]*e[5mC]*eA*e[5mC]*d[5mC]*d[5mC]*dG*d[5mC]*d[5mC]*dG*dG*d[5mC]*dT*d[5mC]*eT*eG*e[5mC]*eT*e[5mC]) [compound 422113]	68
422114 (antisense e[5mC]*eG*e[5mC]*e[5mC]*eA*d[5mC]*d[5mC]*d[5mC]*dG*d[5mC]*d[5mC]*dG*dG*d[5mC]*dT*e[5mC]*eT*eG*e[5mC]*eT) [compound 422114]	50
422115 (antisense eG*e[5mC]*eG*e[5mC]*e[5mC]*dA*d[5mC]*d[5mC]*d[5mC]*dG*d[5mC]*d[5mC]*dG*dG*d[5mC]*eT*e[5mC]*eT*eG*e[5mC]) [compound 422115]	66
422116 (antisense eT*eG*e[5mC]*eG*e[5mC]*d[5mC]*dA*d[5mC]*d[5mC]*d[5mC]*dG*d[5mC]*d[5mC]*dG*dG*e[5mC]*eT*e[5mC]*eT*eG) [compound 422116]	52
